Experimental data published in patent publication US20260373148A1, “5-FLUOROURACIL DERIVATIVE AND ANTI-TUMOR USE THEREOF” (SICHUAN UNIVERSITY, priority 2023, published 2026).
“Also recorded” adds a separate entry of the source.

Tests used:
HN30 cells = experiment: Inhibition of proliferation of HN30 squamous cell carcinoma cells (CCK-8 assay); format: cell-based; settings: 48 hours, 0, 1.25, 2.5, 5, 10 μM, read-out: IC50 values against HN30 cells
Protocol: (§1) Squamous cell carcinoma cell lines: HN30, HN12, Cal-27, HSC-3.
(§2) Test compounds: Compounds 3a, 3b, 3c; Compound 1 (i.e., 5-fluorouracil).
(§3) The experimental procedure was as follows: All four tumor cell lines were cultured in a standardized incubator at 37 °C with 5% CO2. Cells in logarithmic growth phase were digested, counted, and seeded onto 96-well plates at 3000 cells/well. They were then cultured overnight in the incubator. The test compounds were prepared into a stock solution with DMSO at a concentration of 10 mM, and were diluted sequentially (0, 1.25, 2.5, 5, 10 μM) before treating the cells. The control group was treated with the highest concentration of DMSO. The cells were cultured for additional 48 hours in the incubator, and the effect of each compound on the proliferation of the four tumor cell lines was assessed using CCK-8 assay. Meanwhile, the experimental results of compound 3a and compound 1 were analyzed to obtain their IC50 values, and the effects of both compounds on tumor cell proliferation were compared.

Cal27 cells = experiment: Inhibition of proliferation of Cal27 squamous cell carcinoma cells (CCK-8 assay); format: cell-based; settings: Homo sapiens, CAL-27, 48 hours, 0, 1.25, 2.5, 5, 10 μM, read-out: IC50 values against Cal27 cells
Protocol: as §1, §2, §3

OSCC cells = settings: in words; Heilongjiang Medicine and Pharmacy, February 2009; cited from earlier work
[1] = system: squamous cell carcinoma cells HN30, HN12, Cal-27, and HSC-3; experiment: Inhibitory effect of compounds on the proliferation of squamous cell carcinoma cells HN30, HN12, Cal-27, HSC-3 (CCK-8 assay); format: cell-based; settings: in words, 48 hours; for inhibitory effect on the proliferation of tumor cells: HN30, HN12, Cal-27, HSC-3, 0, 1.25, 2.5, 5, 10 μM
Protocol: as §1, §2, §3

| IC50 (HN30 cells) [µM] | IC50 (Cal27 cells) [µM] | SMILES | induction of apoptosis in OSCC cells (OSCC cells) | inhibitory effect on the proliferation of tumor cells [1] | IC50 value compared with compound 1 ([1]; compound 3a versus compound 1, FIGS. 2 and 3 (HN30 and Cal27)) |
| --- | --- | --- | --- | --- | --- |
| 21.7 | 22.8 | O=c1[nH]cc(F)c(=O)[nH]1 [Compound 1, 5-fluorouracil] | can induce apoptosis in OSCC cells | higher anti-tumor activity in a higher concentration range | – |
| 7.09 | 6.54 | O=C(CCn1cc(F)c(=O)n(CCC(=O)Nc2ccc(C34CC5CC(CC(C5)C3)C4)cc2)c1=O)Nc1ccc(C23CC4CC(CC(C4)C2)C3)cc1 [Compound 3a] | – | significantly better inhibitory effect than 5-fluorouracil; also recorded: significantly higher than that of compounds 1, 3b, and 3c; also recorded: significantly better than that of 5-fluorouracil | significantly lower than that of compound 1 |
| – | – | O=C(CCn1cc(F)c(=O)[nH]c1=O)Nc1ccc(C23CC4CC(CC(C4)C2)C3)cc1 [Compound 3b] | – | did not show significant improvement | – |
| – | – | O=C(CCn1c(=O)[nH]cc(F)c1=O)Nc1ccc(C23CC4CC(CC(C4)C2)C3)cc1 [Compound 3c] | – | did not show significant improvement | – |
